Paper PMC11435438, “Cyclin-Dependent Kinase 8 Represents a Positive Regulator of Cytomegalovirus Replication and a Novel Host Target for Antiviral Strategies” (Pharmaceutics, 2024)

Assays:
[1] = system: MHV-68-Luc; experiment: MHV-68 replication assay in Vero cells; type: cell-based, murine herpesvirus 68; conditions: Murine herpesvirus, read-out: EC50 MHV-68
Protocol: (§1) Primary human foreskin fibroblasts (HFFs; obtained from clinical samples at Children’s Hospital in Erlangen, Germany), guinea pig embryonic fibroblasts (GPEFs; generously provided by Mark R. Schleiss from the University of Minnesota in Minneapolis, MN, USA), and rat embryonic fibroblasts were cultivated in Eagle’s Minimal Essential Medium (MEM) supplemented with 1 × GlutaMAX™ (both from Thermo Fisher Scientific, Waltham, MA, USA), 10 µg/mL gentamicin, and 10% fetal bovine serum (FBS; Capricorn, Ebsdorfergrund, Germany). Human glioblastoma–astrocytoma cell line (U373) and mouse embryonic fibroblasts (MEFs), both obtained from ATCC (Manassas, VA, USA), and Vero cell sublineage 76 [26], were cultivated in Dulbecco’s modified Eagle’s medium (DMEM) supplemented with 1 × GlutaMAX™, 10 µg/mL gentamicin, and 10% fetal bovine serum. All cultured cells were maintained under the conditions of 37 °C temperature, 5% CO2, and 80% humidity. The regular monitoring for the absence of mycoplasma contamination was conducted using Lonza™ Mycoalert™ (Thermo Fisher Scientific, Waltham, MA, USA). Cultured cell-based viral replication assays were performed by the use of the HCMV strain AD169 (variant U.K.), the recombinant HCMVs AD169-GFP expressing green fluorescent protein [27], TB40 IE2-YFP and TB40-FLuc expressing an IE2-YFP fusion protein or firefly luciferase (FLuc), and Merlin-GFP [31]. […]
(§2) A variety of antiherpesviral and non-herpesviral drug activities were assessed by the cell culture-based viral replication systems, as described elsewhere. […] After incubation at 37 °C for 3 days, iSLK.219 cells were fixed with 10% formalin, washed with PBS, and used for a quantitation of RFP reporter signal by PicoMD counting (ImageXpress® Pico device, Molecular Devices LLC, San Jose, CA, USA). […]

[2] = system: MCMV-GFP; experiment: MCMV-GFP replication assay in MEFs; type: cell-based, murine cytomegalovirus; conditions: Murid betaherpesvirus 1, read-out: EC50 MCMV
Source text: (§3) Similarly, 2 × 10^4 primary embryonic guinea pig fibroblasts GPEFs/96-well, or 1.35 × 10^4 HFFs/96-well, or 2 × 10^4 rat REFs/96-well, or 2 × 10^4 murine MEFs/96-well, were cultivated for infection with GPCMV-GFP, RhCMV-GFP, ChCMV, RCMV-mCherry, or MCMV-GFP, respectively (all approx. MOI of 0.01 referring to 1 × TCID25), and were used for the assessment of antiviral drug activity. To this end, cells were fixed 7 d p.i. (RCMV-mCherry 4 d p.i.), before GFP or mCherry expression was quantified using the Victor X4 microplate reader, or other viral replication markers were measured as explained for the individual experiments. ChCMV replication in HFFs was monitored and quantified by the use of Anti-Cytomegalovirus Antibody Alexa Fluor™ 488. For immunofluorescence staining with Anti-Cytomegalovirus Antibody Alexa Fluor™ 488 (Sigma Aldrich, St. Louis, MO, USA; solution in PBS with 1% FCS), the infected cells were fixed at 7 d p.i. with 10% formalin and permeabilized with 0.2% Triton-x-100. Cell nuclei were counterstained using Höchst dye to be measured using the ImageXpress Pico (Molecular Devices, LLC, San Jose, CA, USA). Mean EC50 values of antiviral efficacy were calculated on the basis of three experimental replicates or as indicated (measurement of fluorescence values in quadruplicate), and percentage values were provided relative to the solvent control (DMSO).

[3] = system: HHV-6A-GFP; experiment: HHV-6A replication assay in J-Jhan cells; type: cell-based, human herpesvirus type 6A; conditions: Homo sapiens, read-out: EC50 HHV-6A
Protocol: as §1, §2

[4] = system: HAdV species C5 DBP-mneongreen; experiment: HAdV replication assay in A549 cells; type: cell-based; conditions: Human adenovirus sp., A549, read-out: EC50 HAdV
Protocol: as §1, §2

[5] = system: HSV-1 166v VP22-GFP; experiment: HSV-1 replication assay in HFFs; type: cell-based, herpes simplex virus type 1; conditions: Human alphaherpesvirus 1, read-out: EC50 HSV-1
Protocol: as §1, §2

[6] = system: ChCMV strain Herberling; experiment: ChCMV replication assay in HFFs (immunofluorescence); type: cell-based, chimpanzee cytomegalovirus; conditions: in Pan troglodytes, n = 2
Source text: as §3

[7] = system: VZV Oka-GFP; experiment: VZV replication assay in HFFs; type: cell-based, varicella zoster virus; conditions: Human alphaherpesvirus 3, read-out: EC50 VZV
Protocol: as §1, §2

Q: Which EC50 [1] does the source give for `Cc1n[nH]c2ncc(C(=O)N3CCC[C@H]3c3ccc(Cl)cc3)cc12` [MSC-2530818] here?
A: 2.5 ± 3 nM

Q: What about the EC50 [2] of the same compound?
A: 1.8 ± 1.99 nM

Q: And the EC50 [3]?
A: > 50 µM

Q: And the EC50 [4]?
A: 340 ± 260 nM

Q: And the EC50 [5]?
A: 42.3 ± 4.9 µM

Q: What about the EC50 [6] of the same compound?
A: 21 ± 26.5 nM

Q: And the EC50 [7]?
A: > 50 µM

Q: Which EC50 [1] does the source give for `Cn1ncc2cc(-c3cnc(N)c(Cl)c3N3CCC4(CCNC4=O)CC3)ccc21` [CCT-151921] here?
A: 22 ± 19 nM

Q: What about the EC50 [2] of the same compound?
A: 2.65 ± 4.5 nM

Q: And the EC50 [3]?
A: 39 ± 21 µM

Q: And the EC50 [4]?
A: 30 ± 30 nM

Q: What about the EC50 [5] of the same compound?
A: > 50 µM

Q: What about the EC50 [6] of the same compound?
A: 31 ± 18 nM

Q: What about the EC50 [7] of the same compound?
A: 28 ± 9 µM

Q: With `CN(C)C(=O)Cn1cc(-c2ccc(-c3cncc4ccccc34)cc2)cn1` [BI-1347] as the compound, how does the EC50 [1] read?
A: 0.8 ± 1 nM

Q: And the EC50 [2]?
A: 1.57 ± 1.71 nM

Q: What about the EC50 [3] of the same compound?
A: > 50 µM

Q: And the EC50 [4]?
A: 50 ± 110 nM

Q: And the EC50 [5]?
A: > 50 µM

Q: And the EC50 [6]?
A: 11.6 ± 22.6 nM

Q: What about the EC50 [7] of the same compound?
A: 26 ± 10 µM
